# In ChEMBL document CHEMBL5724914, “Linking interpersonal differences in gut microbiota composition and drug biotransformation activity” (2024):
# Details: human gut metagenome, 24 h, 2 µM
# Note: call rule not given here.
row,Bacterial Biotransformation,SMILES
1,Compound metabolized,COC(=O)Nc1nc2ccc(C(=O)c3ccccc3)cc2[nH]1 [MEBENDAZOLE]
2,Compound NOT metabolized,CC(C)(C(=O)O)c1ccc(C(O)CCCN2CCC(C(O)(c3ccccc3)c3ccccc3)CC2)cc1 (stereo not given) [FEXOFENADINE]

# Experiment: (§1) The drug is tested on WLS-350 corresponding to human gut metagenome with ENA study accession number: PRJEB37062 and ENA sample accession number: ERS12561789 for biotransformation under anaerobic condition. The drug concentrations were measured over 9 timepoints collected between 0 and 24 hours of incubation by liquid-chromatography-coupled mass spectrometry (LC–MS)
# Details: 2 µM
row,Bacterial Biotransformation,SMILES
1,Compound NOT metabolized,COC(=O)Nc1nc2ccc(C(=O)c3ccccc3)cc2[nH]1 [MEBENDAZOLE]
2,Compound NOT metabolized,CC(C)(C(=O)O)c1ccc(C(O)CCCN2CCC(C(O)(c3ccccc3)c3ccccc3)CC2)cc1 (stereo not given) [FEXOFENADINE]

# Details: human gut metagenome, 24 h, 2 µM
# Remark: another data set of the same source
row,Bacterial Biotransformation,SMILES
1,Compound metabolized,COC(=O)Nc1nc2ccc(C(=O)c3ccccc3)cc2[nH]1 [MEBENDAZOLE]
2,Compound NOT metabolized,CC(C)(C(=O)O)c1ccc(C(O)CCCN2CCC(C(O)(c3ccccc3)c3ccccc3)CC2)cc1 (stereo not given) [FEXOFENADINE]

# Details: human gut metagenome, 24 h, 2 µM
# Remark: another data set of the same source
row,Bacterial Biotransformation,SMILES
1,Compound metabolized,COC(=O)Nc1nc2ccc(C(=O)c3ccccc3)cc2[nH]1 [MEBENDAZOLE]
2,Compound NOT metabolized,CC(C)(C(=O)O)c1ccc(C(O)CCCN2CCC(C(O)(c3ccccc3)c3ccccc3)CC2)cc1 (stereo not given) [FEXOFENADINE]

# Experiment: as §1, with “Z-005” for “WLS-350”, “to” for “to human gut”, “ERS12561805” for “ERS12561789”
# Details: 2 µM
row,Bacterial Biotransformation,SMILES
1,Compound metabolized,COC(=O)Nc1nc2ccc(C(=O)c3ccccc3)cc2[nH]1 [MEBENDAZOLE]
2,Compound NOT metabolized,CC(C)(C(=O)O)c1ccc(C(O)CCCN2CCC(C(O)(c3ccccc3)c3ccccc3)CC2)cc1 (stereo not given) [FEXOFENADINE]

# Experiment: as §1, with “Z-007” for “WLS-350”, “rat” for “human”, “ERS12561807” for “ERS12561789”
# Details: 2 µM
row,Bacterial Biotransformation,SMILES
1,Compound metabolized,COC(=O)Nc1nc2ccc(C(=O)c3ccccc3)cc2[nH]1 [MEBENDAZOLE]
2,Compound NOT metabolized,CC(C)(C(=O)O)c1ccc(C(O)CCCN2CCC(C(O)(c3ccccc3)c3ccccc3)CC2)cc1 (stereo not given) [FEXOFENADINE]

# Details: human gut metagenome, 24 h, 2 µM
# Remark: another data set of the same source
row,Bacterial Biotransformation,SMILES
1,Compound metabolized,COC(=O)Nc1nc2ccc(C(=O)c3ccccc3)cc2[nH]1 [MEBENDAZOLE]
2,Compound NOT metabolized,CC(C)(C(=O)O)c1ccc(C(O)CCCN2CCC(C(O)(c3ccccc3)c3ccccc3)CC2)cc1 (stereo not given) [FEXOFENADINE]

# Details: human gut metagenome, 24 h, 2 µM
# Remark: another data set of the same source
row,Bacterial Biotransformation,SMILES
1,Compound metabolized,COC(=O)Nc1nc2ccc(C(=O)c3ccccc3)cc2[nH]1 [MEBENDAZOLE]
2,Compound NOT metabolized,CC(C)(C(=O)O)c1ccc(C(O)CCCN2CCC(C(O)(c3ccccc3)c3ccccc3)CC2)cc1 (stereo not given) [FEXOFENADINE]

# Details: human gut metagenome, 24 h, 2 µM
# Remark: another data set of the same source
row,Bacterial Biotransformation,SMILES
1,Compound metabolized,COC(=O)Nc1nc2ccc(C(=O)c3ccccc3)cc2[nH]1 [MEBENDAZOLE]
2,Compound NOT metabolized,CC(C)(C(=O)O)c1ccc(C(O)CCCN2CCC(C(O)(c3ccccc3)c3ccccc3)CC2)cc1 (stereo not given) [FEXOFENADINE]

# Experiment: as §1, with “WLS-240” for “WLS-350”, “ERS12561773” for “ERS12561789”
# Details: 2 µM
row,Bacterial Biotransformation,SMILES
1,Compound metabolized,COC(=O)Nc1nc2ccc(C(=O)c3ccccc3)cc2[nH]1 [MEBENDAZOLE]
2,Compound NOT metabolized,CC(C)(C(=O)O)c1ccc(C(O)CCCN2CCC(C(O)(c3ccccc3)c3ccccc3)CC2)cc1 (stereo not given) [FEXOFENADINE]

# Experiment: as §1, with “WLS-082” for “WLS-350”, “ERS12561751” for “ERS12561789”
# Details: 2 µM
row,Bacterial Biotransformation,SMILES
1,Compound metabolized,COC(=O)Nc1nc2ccc(C(=O)c3ccccc3)cc2[nH]1 [MEBENDAZOLE]
2,Compound NOT metabolized,CC(C)(C(=O)O)c1ccc(C(O)CCCN2CCC(C(O)(c3ccccc3)c3ccccc3)CC2)cc1 (stereo not given) [FEXOFENADINE]

# Details: human gut metagenome, 24 h, 2 µM
# Remark: another data set of the same source
row,Bacterial Biotransformation,SMILES
1,Compound metabolized,COC(=O)Nc1nc2ccc(C(=O)c3ccccc3)cc2[nH]1 [MEBENDAZOLE]
2,Compound NOT metabolized,CC(C)(C(=O)O)c1ccc(C(O)CCCN2CCC(C(O)(c3ccccc3)c3ccccc3)CC2)cc1 (stereo not given) [FEXOFENADINE]

# Experiment: as §1, with “Z-012” for “WLS-350”, “to” for “to human gut”, “ERS12561812” for “ERS12561789”
# Details: 2 µM
row,Bacterial Biotransformation,SMILES
1,Compound metabolized,COC(=O)Nc1nc2ccc(C(=O)c3ccccc3)cc2[nH]1 [MEBENDAZOLE]
2,Compound NOT metabolized,CC(C)(C(=O)O)c1ccc(C(O)CCCN2CCC(C(O)(c3ccccc3)c3ccccc3)CC2)cc1 (stereo not given) [FEXOFENADINE]

# Details: human gut metagenome, 24 h, 2 µM
# Remark: another data set of the same source
row,Bacterial Biotransformation,SMILES
1,Compound metabolized,COC(=O)Nc1nc2ccc(C(=O)c3ccccc3)cc2[nH]1 [MEBENDAZOLE]
2,Compound NOT metabolized,CC(C)(C(=O)O)c1ccc(C(O)CCCN2CCC(C(O)(c3ccccc3)c3ccccc3)CC2)cc1 (stereo not given) [FEXOFENADINE]

# Details: human gut metagenome, 24 h, 2 µM
# Remark: another data set of the same source
row,Bacterial Biotransformation,SMILES
1,Compound NOT metabolized,COC(=O)Nc1nc2ccc(C(=O)c3ccccc3)cc2[nH]1 [MEBENDAZOLE]
2,Compound NOT metabolized,CC(C)(C(=O)O)c1ccc(C(O)CCCN2CCC(C(O)(c3ccccc3)c3ccccc3)CC2)cc1 (stereo not given) [FEXOFENADINE]

# Experiment: as §1, with “Z-018” for “WLS-350”, “pig” for “human”, “ERS12561817” for “ERS12561789”
# Details: 2 µM
row,Bacterial Biotransformation,SMILES
1,Compound metabolized,COC(=O)Nc1nc2ccc(C(=O)c3ccccc3)cc2[nH]1 [MEBENDAZOLE]
2,Compound NOT metabolized,CC(C)(C(=O)O)c1ccc(C(O)CCCN2CCC(C(O)(c3ccccc3)c3ccccc3)CC2)cc1 (stereo not given) [FEXOFENADINE]

# Experiment: as §1, with “Z-029” for “WLS-350”, “rat” for “human”, “ERS12561828” for “ERS12561789”
# Details: 2 µM
row,Bacterial Biotransformation,SMILES
1,Compound metabolized,COC(=O)Nc1nc2ccc(C(=O)c3ccccc3)cc2[nH]1 [MEBENDAZOLE]
2,Compound NOT metabolized,CC(C)(C(=O)O)c1ccc(C(O)CCCN2CCC(C(O)(c3ccccc3)c3ccccc3)CC2)cc1 (stereo not given) [FEXOFENADINE]

# Details: human gut metagenome, 24 h, 2 µM
# Remark: another data set of the same source
row,Bacterial Biotransformation,SMILES
1,Compound metabolized,COC(=O)Nc1nc2ccc(C(=O)c3ccccc3)cc2[nH]1 [MEBENDAZOLE]
2,Compound NOT metabolized,CC(C)(C(=O)O)c1ccc(C(O)CCCN2CCC(C(O)(c3ccccc3)c3ccccc3)CC2)cc1 (stereo not given) [FEXOFENADINE]

# Experiment: as §1, with “Z-003” for “WLS-350”, “pig” for “human”, “ERS12561803” for “ERS12561789”
# Details: 2 µM
row,Bacterial Biotransformation,SMILES
1,Compound metabolized,COC(=O)Nc1nc2ccc(C(=O)c3ccccc3)cc2[nH]1 [MEBENDAZOLE]
2,Compound NOT metabolized,CC(C)(C(=O)O)c1ccc(C(O)CCCN2CCC(C(O)(c3ccccc3)c3ccccc3)CC2)cc1 (stereo not given) [FEXOFENADINE]

# Details: human gut metagenome, 24 h, 2 µM
# Remark: another data set of the same source
row,Bacterial Biotransformation,SMILES
1,Compound metabolized,COC(=O)Nc1nc2ccc(C(=O)c3ccccc3)cc2[nH]1 [MEBENDAZOLE]
2,Compound NOT metabolized,CC(C)(C(=O)O)c1ccc(C(O)CCCN2CCC(C(O)(c3ccccc3)c3ccccc3)CC2)cc1 (stereo not given) [FEXOFENADINE]
